Columns and labels:
[1] = tested on: PD-L1 surface expression of LLC-JSP cells; assay: PD-L1 surface expression by flow cytometry, LLC-JSP; type: cell-based, mouse; details: for surface PD-L1 level of surviving cells: 500 ng/ml
Procedure: FIGS. 4A-4C Treatment effects of mitotic kinase inhibitors on (A) 3-day viability of LLC-JSP cells, (B) PD-L1 expression levels of surviving cells post treatment with 500 ng/ml of volasertib, alisertib, or AZD7762 as determined by flow cytometry and (C) their quantification.
FIGS. 6A-6D Nanoparticle delivery of PLK1 inhibitor volasertib (iPLK1-NP) to mouse NSCLC cells. (FIG. 6A) Schematic of synthesis of iPLK1-NP. (FIG. 6B) Hydrodynamic size of NP (with no inhibitor) and iPLK1-NP measured with Zetasizer. (FIG. 6C) Viability of LLC-JSP cells treated with volasertib (in 1% DMSO/PBS), iPLK1-NP (in PBS), or 1% DMSO/PBS for 4 days. Data presented as mean±SD from 4 independent samples; ****P<0.0001. (FIG. 6D) PD-L1 surface expression of LLC-JSP cells treated with PBS or iPLK1-NP (42 μg/ml NP, 210 ng/ml volasertib) for 3 days.
FIGS. 7A-7E. Nanoparticle for co-delivery of PLK1 inhibitor (iPLK1) and PD-L1 antibody (p-iPLK1-NP). (FIG. 7A) Schematic and (FIG. 7B) hydrodynamic size of p-iPLK1-NP containing 4 wt. % of PD-L1 antibody and 0.5 wt. % of PLK1 inhibitor. (FIG. 7C) 5-day cell viability of LLC-JSP cells treated with iPLK1-NP or p-iPLK1-NP. Data presented as mean±SD from 4 independent samples; ns—not significant. PD-L1 surface expression assessed by flow cytometry after LLC-JSP cells were incubated with various treatments as specified for (FIG. 7D) 2 hrs and (FIG. 7E) 2 days. Doses: free PD-L1 antibody (50 μg/ml), iPLK1-NP (NP containing 50 μg/ml volasertib), and p-iPLK1-NP (NP containing 50 μg/ml volasertib and 2 μg/ml PD-L1 antibody). Left of FIGS. 7D and 7E: representative histograms, right: median intensity (RFU). Data presented as mean±SD from independent duplicates (10,000 events per sample); *P<0.05, **P<0.01, ***P<0.001, ****P<0.0001. Unless specified otherwise, the percent loading is by weight of nanoparticle throughout the application.
(§1) FIGS. 12A and 12B. Inhibition of PLK1 reduces phosphorylation of STAT3. Western blot showing protein expression of PLK1, Pl3Ka, phosphorylated STAT3 (Tyr705), phosphorylated AKT (Ser473), and p-Actin 3 days post treatment (50 nM siRNA) in A549 and H460 NSCLC cell lines. […] The cells were treated with NP containing 30 nM siRNA against PD-L1 (siPDL1) or 30 nM scrambled siRNA (siSCR) at 2 wt. % siRNA. At 72 hr post treatment, cells were harvested and assessed for PD-L1 protein expression by flow cytometry. RFU=Relative fluorescence units.
Flow cytometry: Cells (100K cells/well) were plated in 6 well plates overnight and treated with indicated treatments the next day. Following treatments, cells were collected and aliquoted to […] per sample before washing in FACs buffer and staining. […] Cells were then washed with FACs buffer and analyzed with Guava (50,000 events per sample).

LLC-JSP cells = assay: Cell viability after treatments (Cell Titer Glo), LLC-JSP; type: cell-based, mouse; details: for 3-day viability of LLC-JSP cells: free mitotic kinase inhibitors
Procedure: (C) Cell viability of murine cancer cells (LLC-JSP, 4T1, B16-F10) and murine bone marrow-derived dendritic cells (BMDC) treated with p-iPLK1-NP.
(B) Treatment effect of ADC versus free alisertib of equivalent dose on viability of LLC-JSP cells (2-days). Free alisertib was dissolved in DMSO before use.
Cell viability after treatments: Cells (1500/well) were plated in white flat bottom 96 well plate overnight. The following day, cells were treated with indicated treatments and media was changed 24 hr post treatment. 3-5 day post treatment, cell viability was assessed using Cell Titer Glo assay (Promega) following manufacturer's instructions. Luminescence was read with Tecan plate reader.

A549 = assay: Cell cycle arrest in G2/M phase; type: cell-based, human; details: 72 hr post treatment, 50 nM siRNA, BI 2536 at 10 nM
Procedure: (§2) FIGS. 2A-2D. Effects of siRNA against mitotic regulator PLK1 (siPLK1) on non-small-cell lung carcinoma (NSCLC) cell lines (A549 and H460). (FIG. 2A) 48-hr PLK1 mRNA knockdown (HPRT used as house-keeping gene) and (FIG. 2B) 72-hr PLK1 protein reduction at 50 nM siRNA dose. (FIG. 2C) 4-day cell viability at 30 nM siRNA dose. (FIG. 2D) Cell cycle arrest increase in G2/M phase in A549 72 hr post treatment. Antibody (cetuximab) conjugated NP was used to deliver the siPLK1 (C-siPLK1-NP) or scrambled siRNA control (C-siSCR-NP) at 50 nM siRNA BI 2536 (a PLK1 inhibitor) was used as a drug benchmark at 10 nM. Data presented as mean±SD from independent duplicates (10,000 events per sample); ****P<0.0001 vs. untreat control. Unless specified otherwise, “NP” denotes mesoporous silica nanoparticles coated with cross-linked PEI and PEG, as described in Ngamcherdtrakul et al., Advanced Functional Materials, 25(18):2646-2659, 2015 and U.S. Patent Application Publication No. 2017/0173169.

PLK1 mRNA = assay: PLK1 knock down by siRNA (RT-qPCR / protein); type: cell-based, human; details: A549; 48 hr post treatment; normalized to HPRT
Procedure: as §2
FIGS. 3A-3C. […] (FIG. 3B) PD-L1 surface expression of A549 (FIG. 2B) and LLC-JSP (a mouse NSCLC, FIG. 3C) at 72 hr post treatments assessed by flow cytometry (10,000 events per sample). […]
RT-qPCR to assess PLK1 gene knock down: RNA was isolated with GeneJet RNA purification kit (Thermo Fisher Scientific) following manufacturer's instructions. […] Data was analyzed using 2^−ΔΔC(t) method.

[2] = tested on: PD-L1 mRNA expression in A549; assay: PD-L1 mRNA expression after PLK1 knock-down (RT-qPCR); type: cell-based, human; details: 48 hr, compared with control treated cells
Text: (§3) FIGS. 3A-3C. […] (FIG. 3A) PLK1 and PD-L1 mRNA expression in A549 (human NSCLC) at 48 hr post treatment with PLK1 siRNA (siPLK1) or scrambled siRNA (siSCR) normalized to HPRT housekeeping gene. Data presented as mean±SD from triplicates; ****P<0.0001. (FIG. 3B) PD-L1 surface expression of A549 ([…]) and LLC-JSP (a mouse NSCLC, FIG. 3C) at 72 hr post treatments assessed by flow cytometry (10,000 events per sample). Mouse siPLK1 seq. […] (SEQ ID NO: 1); Human siPLK1 seq. […] (SEQ ID NO: 2).
RT-qPCR to assess PLK1 gene knock down: RNA was isolated with GeneJet RNA purification kit (Thermo Fisher Scientific) following manufacturer's instructions. One-Step qRT-PCR was performed using EXPRESS One-Step Superscript™ qRT-PCR Kit (Invitrogen). Cycling conditions: 50° C. for 2 min, 95° C. for 10 min, 40 cycles of 95° C. for 15 s, and 60° C. for 1 min. TAQMAN gene expression primers Human HPRT mRNA (Hs99999909_m1), Human PLK1 mRNA (Hs00983225_g1), and Human PD-L1 (Hs00204257_ml) were used. Data was analyzed using 2^−ΔΔC(t) method.

[3] = tested on: PD-L1 surface expression of A549; assay: PD-L1 surface expression by flow cytometry, A549; type: cell-based, human; details: 3 days (72 hr) post siRNA treatment
Text: as §3
Flow cytometry: Cells (100K cells/well) were plated in 6 well plates overnight and treated with indicated treatments the next day. Following treatments, cells were collected and aliquoted to […] per sample before washing in FACs buffer and staining. Primary and secondary antibodies were stained for 30 mins and 1 hour, respectively, under rocking on ice. After staining, cells were washed in FACs buffer before flow analysis with Guava easyCyte (Millipore Sigma) flow cytometer (10,000 events per sample). For tumors, tumors were harvested, minced, and incubated with 1 mg/ml DNAse for 30 minutes before smashing through 70 μm filter to obtain single cell suspension. RBC lysis buffer was incubated with cells for 5 minutes, and washed with PBS. […] Cells were then washed with FACs buffer and analyzed with Guava (50,000 events per sample).

[4] = tested on: phosphorylated STAT3 (Tyr705); assay: Western blot of phosphorylated STAT3 after PLK1 inhibition; type: cell-based, human; details: A549 and H460; 3 days post treatment; 50 nM siRNA
Procedure: as §1
Western Blot. Cells were seeded in 6 well plates overnight and treated with indicated treatments. Cell culture medium was changed one day aftertreatment. Three days post treatment, cells were lysed in RIPA buffer (50-100 μl per well). Lysate was sonicated and centrifuged (15,000 RPM for 15 minutes) and supernatant was collected. Amount of total protein was quantified using BCA. 30 μg of proteins (per sample) were mixed with 4× Novex NuPAGE LDS sample buffer and beta-mercaptoethanol (10% final concentration). Samples were denatured for 5 min at 95° C. and loaded onto gel (NuPAGE) for electrophoresis. Proteins were then transferred onto PVDF-FL membrane and blocked with LICOR blocking buffer. Membranes were incubated with primary antibodies overnight (PLK1, phospho-STAT3 (Tyr705), β-ACTIN) at 4° C. […]

## NC(=O)Nc1cc(-c2cccc(F)c2)sc1C(=O)N[C@H]1CCCNC1 [AZD7762]
[1]
  surface PD-L1 level of surviving cells: upregulated surface PD-L1 level
LLC-JSP cells
  3-day viability of LLC-JSP cells: significant cell death

## CC[C@@H]1C(=O)N(C)c2cnc(Nc3ccc(C(=O)NC4CCN(C)CC4)cc3OC)nc2N1C1CCCC1 [BI2536]
A549
  cell cycle arrest in G2/M phase: G2/M growth arrest

## siPLK1: siRNA against PLK1, antisense 5′-UAUUCAUUCUUCUUGAUCCGG-3′; SEQ ID NO: 2 (sense strand lacks entry, further chemistry not given here)
PLK1 mRNA
  knockdown of PLK1 mRNA: 85%
[2]
  increase in PD-L1 mRNA expression: 2.5 fold
[3]
  PD-L1 surface expression: increase in PD-L1 surface expression
[4]
  phosphorylation of STAT3: reduced phosphorylation of STAT3

## CC[C@@H]1C(=O)N(C)c2cnc(Nc3ccc(C(=O)N[C@H]4CC[C@H](N5CCN(CC6CC6)CC5)CC4)cc3OC)nc2N1C(C)C [volasertib]
[1]
  surface PD-L1 level of surviving cells: upregulated surface PD-L1 level
LLC-JSP cells; LLC-JSP, 4 days, dose-dependent
  cell viability compared with vehicle treated cells: significantly reduced cell viability
LLC-JSP cells
  3-day viability of LLC-JSP cells: significant cell death

## COc1cc(Nc2ncc3c(n2)-c2ccc(Cl)cc2C(c2c(F)cccc2OC)=NC3)ccc1C(=O)O [alisertib]
[1]
  surface PD-L1 level of surviving cells: upregulated surface PD-L1 level
LLC-JSP cells
  3-day viability of LLC-JSP cells: significant cell death

## Mouse siPLK1: Mouse siPLK1 seq. GUGGGCGUGGUACCAUCUGUU (SEQ ID NO: 1) (listed as RNA, chemistry not given here)
[1]; 72 hr post siRNA treatment
  PD-L1 surface expression: induces PD-L1 expression
